Legend:
[1] = test system: spontaneously hypertensive rats; experiment: Mean arterial blood pressure in spontaneously hypertensive rats; format: in vivo, Okamoto strain); conditions: 100 mg/kg by gavage at 0 and 24 hours, measured at 28 hours, 1 rat; average of SHR used 170+1.5 mm of mercury
Protocol: The novel compounds of the present invention were tested for hypotensive activity by the method of P. S. Chan and D. W. Poorwin, Clin. Exptl. Hypertension, 1 (6): 817 (1979). Male, 16-20 week old, spontaneously hypertensive rats (SHR) of the Okamoto strain, from Taconic Farms, Germantown, New York, having an average mean arterial blood pressure of 170+1.5 mm of mercury are used in the test. One male adult SHR weighing about 300 g is dosed by gavage with a test compound, suspended in 2% pre-boiled starch at a concentration of 50 mg/ml, at a dose of 100 mg/kg of body weight or less, with 0.9% sodium chloride loading at a dose of 25 ml/kg of body weight, at zero hours. A second indentical dose of the test compound, without sodium chloride loading in given 24 hours later. At 28 hours after the initial dose the mean arterial blood pressure is measured by the method of Chan and Poorwin vide supra. The results of this test on representative compounds of the present invention appear below in Table IV.

rats = experiment: Non-conditioned passive avoidance test in rats; format: in vivo, rat (Wistar); design: key: Active: considered active if the number of shocks received by the test group is significantly higher than the control group by the Mann-Whitney U test; conditions: oral or i.p., 30 or 60 minutes before test
Protocol: Another test used to assess anti-anxiety effects is a non-conditioned passive avoidance procedure described by J. R. Vogel, B. Beer and D. E. Clody. "A Simple and Reliable Conflict Procedure for Testing Anti-Anxiety Agents", Psychopharmacologia, 21, 1-7 (1971). A conflict situation is induced in rats by a modification of this method.
Groups of 8 naive, Wistar strain male rats weighing 200-240 g each were deprived of water for 48 hours. The test compounds were administered in single or graded, oral or intraperitoneal doses, suspended in distilled water and one drop of polysorbate 80. Control animals received the vehicle alone. At 30 or 60 minutes each rat was placed in an individual clear plexiglass chamber. Tap water was available ad libitum from a nipple located in a black plexiglass box off the main chamber. A 0.7 milliampere AC shocking current was established between the stainless steel grid floor and the tap. After 20 licks of non-shocked drinking, a 2 second shocking current was administered to the rat. This ratio of 20 licks of non-shocked drinking followed by a 2 second shock was continued for a total of 3 minutes. The number of shocks taken by each rat during the 3 minute interval was recorded and compared to a control group.

[2] = test system: clonic seizures caused by pentylenetetrazole in rats; experiment: Protection against clonic seizures caused by pentylenetetrazole in rats; format: in vivo, rat; conditions: oral or i.p., pentylenetetrazole 23 mg/kg i.v. at 30 or 60 minutes
Protocol: The anti-anxiety properties of the novel compounds of the present invention have been established in a test which indicates anxiolytic activity by the measure of protection from convulsions resulting from the administration of pentylenetetrazole. Single or graded dose levels of the test compounds were administered orally or intraperitoneally in a 2% starch vehicle containing 0.5% v/v polyethylene glycol and one drop of polysorbate 80 or distilled water and one drop of polysorbate 80 to groups of at least 4 rats. At 30 or 60 minutes, the rats were treated intravenously with pentylenetetrazole at a dose of 23 mg/kg of body weight. This dose is estimated to cause clonic seizures in 99% of unprotected rats. It has been reported [R. T. Hill and D. H. Tedeschi, "Animal Testing and Screening Procedures in Evaluating Psychotropic Drugs" in "An Introduction to Psychopharmacology", Eds. R. R. Rech and K. E. Moore, Raven Press, New York, pp 237-288 (1971)] that there is a high degree of correlation between antagonism of pentylenetetrazole seizures in rats and anti-anxietyeffects in higher warm-blooded animals.

brain-specific receptors = experiment: Inhibition of the binding of 3H-benzodiazepine to brain-specific receptors of rats; design: species or system rat (Wistar); conditions: 3H-flunitrazepam, rat whole cortex P2-synaptosomal fraction, pH 7.5, 30 minutes, 0° C.; test compound concentration not given

| SMILES | Mean Arterial Blood Pressure [1] | % Inhibition of 3H-benzodiazepine binding (brain-specific receptors) [%] | other results |
| --- | --- | --- | --- |
| Brc1ccc(-c2ccnc3nccn23)cc1 [5-(4-Bromophenyl)imidazo[1,2-a]-pyrimidine] | 97 | – | – |
| Clc1cccc(-c2ccnc3nccn23)c1 [5-(3-Chlorophenyl)imidazo[1,2-a]-pyrimidine] | 146 | 37 | Result (non-conditioned passive avoidance) (rats; dose 25.0 mg/kg): Active; % of Rats Protected ([2]; dose 25 mg/kg): 50% |
| Cc1cc(-c2ccccc2F)n2ccnc2n1 [5-(2-Fluorophenyl)-7-methyl imidazo[1,2-a]pyrimidine] | – | 13 | – |
| COc1cc(-c2ccnc3nccn23)cc(OC)c1OC [5-(3,4,5-Trimethoxyphenyl)imidazo-[1,2-a]pyrimidine] | 147 | – | % of Rats Protected ([2]; dose 25 mg/kg): 75% |
| Cc1cc(-c2ccc(Cl)c(Cl)c2)n2ccnc2n1 [5-(3,4-Dichlorophenyl)-7-methyl-imidazo-[1,2-a]pyrimidine] | 119 | 22 | – |
| Clc1ccc(-c2ccnc3nccn23)c(Cl)c1 [5-(2,4-Dichlorophenyl)imidazo-[1,2-a]pyrimidine] | 111 | 11 | – |
| Cc1cc(-c2cccc(C(F)(F)F)c2)n2ccnc2n1 [7-Methyl-5-[3-(trifluoromethyl)phenyl]imidazo[1,2-a]pyrimidine] | 127 | 42 | – |
| FC(F)(F)c1cccc(-c2ccnc3nccn23)c1 [5-(α,α,α-Trifluoro-m-tolyl)imidazo[1,2-a]pyrimidine] | 126 | 46 | Result (non-conditioned passive avoidance) (rats; dose 25.0 mg/kg): Active; % of Rats Protected ([2]; dose 50 mg/kg): 100% |
| Cc1cc(-c2ccccc2)n2ccnc2n1 [7-Methyl-5-phenylimidazo[1,2-a]-pyrimidine] | – | 43 | – |
| COc1cc(-c2cc(C)nc3nccn23)cc(OC)c1OC [7-Methyl-5-(3,4,5-trimethoxy-phenyl)imidazo[1,2-a]pyrimidine] | – | 10 | Result (non-conditioned passive avoidance) (rats; dose 35.0 mg/kg): Active |
| COc1ccc(-c2cc(C)nc3nccn23)cc1OC [5-(3,4-Dimethoxyphenyl)-7-methyl-imidazo[1,2-a]pyrimidine] | 148 | 46 | – |
| Fc1ccccc1-c1ccnc2nccn12 [5-(2-Fluorophenyl)imidazo[1,2-a]-pyrimidine] | 121 | 49 | – |
